Measurements from the kinase profiling compilation of Christmann-Franck et al. (2016).
“And” between values parts separate entries of the source, which are not always exact repeats. Identical values can stand only once.

What was measured:
Assay in all cases: radiometric filter-binding kinase assay, Kinase HotSpot
Conditions in all cases: compound 0.5 µM; ATP 10 µM
PRKD2 (human) = PRKD2 (human) (UniProt Q9BZL6)
RIPK2 (human) = RIPK2 (human) (UniProt O43353)
EPHA4 (human) = EPHA4 (human) (UniProt P54764)
NEK7 (human) = NEK7 (human) (UniProt Q8TDX7)
Chain of NEK7 (human) (Q8TDX7 whole entry, looked up): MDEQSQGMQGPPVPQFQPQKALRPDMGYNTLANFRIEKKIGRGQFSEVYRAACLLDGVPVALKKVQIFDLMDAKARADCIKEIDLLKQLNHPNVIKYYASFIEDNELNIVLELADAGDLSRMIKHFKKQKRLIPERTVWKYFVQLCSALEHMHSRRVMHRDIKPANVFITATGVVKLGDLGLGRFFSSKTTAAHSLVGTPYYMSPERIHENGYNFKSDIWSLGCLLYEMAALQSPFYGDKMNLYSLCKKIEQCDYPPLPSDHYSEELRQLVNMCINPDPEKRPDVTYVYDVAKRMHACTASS

STK25 (human) = STK25 (human) (UniProt O00506)
Chain of STK25 (human) (O00506 whole entry, looked up): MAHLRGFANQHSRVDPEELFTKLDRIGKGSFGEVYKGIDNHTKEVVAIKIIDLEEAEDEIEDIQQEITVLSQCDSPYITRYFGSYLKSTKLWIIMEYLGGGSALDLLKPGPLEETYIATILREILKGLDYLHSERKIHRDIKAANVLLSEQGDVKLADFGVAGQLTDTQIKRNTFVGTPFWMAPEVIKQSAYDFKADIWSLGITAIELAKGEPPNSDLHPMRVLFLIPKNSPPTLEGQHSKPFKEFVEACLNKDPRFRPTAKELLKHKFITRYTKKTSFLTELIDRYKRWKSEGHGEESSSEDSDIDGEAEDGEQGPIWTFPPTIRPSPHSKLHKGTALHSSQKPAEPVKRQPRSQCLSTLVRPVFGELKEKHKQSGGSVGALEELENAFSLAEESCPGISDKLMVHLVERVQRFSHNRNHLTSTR

CSK (human) = CSK (human) (UniProt P41240)
Chain of CSK (human) (P41240 whole entry, looked up): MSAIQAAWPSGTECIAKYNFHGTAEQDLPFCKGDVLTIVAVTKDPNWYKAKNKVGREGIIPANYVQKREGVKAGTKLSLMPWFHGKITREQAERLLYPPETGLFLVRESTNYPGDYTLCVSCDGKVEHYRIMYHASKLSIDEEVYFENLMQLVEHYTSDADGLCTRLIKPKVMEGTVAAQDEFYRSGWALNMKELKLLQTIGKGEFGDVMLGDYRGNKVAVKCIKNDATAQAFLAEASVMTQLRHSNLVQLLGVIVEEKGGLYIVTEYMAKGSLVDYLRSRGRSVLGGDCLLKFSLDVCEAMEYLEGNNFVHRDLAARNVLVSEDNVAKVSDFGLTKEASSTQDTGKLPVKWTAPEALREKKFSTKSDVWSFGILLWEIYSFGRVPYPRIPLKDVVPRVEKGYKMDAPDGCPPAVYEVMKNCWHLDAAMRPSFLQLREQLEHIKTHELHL

TSSK2 (human) = TSSK2 (human) (UniProt Q96PF2)
LTK (human) = LTK (human) (UniProt P29376)
GSK3A (human) = GSK3A (human) (UniProt P49840)
ALK (human) = ALK (human) (UniProt Q9UM73)
CLK2 (human) = CLK2 (human) (UniProt P49760)
STK10 (human) = STK10 (human) (UniProt O94804)
NTRK1 (human) = NTRK1 (human) (UniProt P04629)
HCK (human) = HCK (human) (UniProt P08631)
Chain of HCK (human) (P08631 whole entry, looked up): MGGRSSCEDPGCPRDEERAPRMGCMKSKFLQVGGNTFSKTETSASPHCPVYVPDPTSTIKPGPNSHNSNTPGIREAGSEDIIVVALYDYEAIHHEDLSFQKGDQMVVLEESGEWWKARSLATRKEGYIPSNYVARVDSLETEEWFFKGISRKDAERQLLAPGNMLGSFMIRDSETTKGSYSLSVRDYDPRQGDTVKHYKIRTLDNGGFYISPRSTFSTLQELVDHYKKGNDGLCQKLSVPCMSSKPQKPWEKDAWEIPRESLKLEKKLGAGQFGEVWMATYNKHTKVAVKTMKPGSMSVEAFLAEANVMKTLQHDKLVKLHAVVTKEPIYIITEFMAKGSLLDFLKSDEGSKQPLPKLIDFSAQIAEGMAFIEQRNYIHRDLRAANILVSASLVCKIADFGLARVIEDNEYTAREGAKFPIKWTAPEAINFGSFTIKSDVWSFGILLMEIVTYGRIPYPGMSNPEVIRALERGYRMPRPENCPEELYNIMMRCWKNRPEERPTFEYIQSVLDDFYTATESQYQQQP

SRC (human) = SRC (human) (UniProt P12931)
EPHB2 (human) = EPHB2 (human) (UniProt P29323)
STK17A (human) = STK17A (human) (UniProt Q9UEE5)
ROCK2 (human) = ROCK2 (human) (UniProt O75116)
BMX (human) = BMX (human) (UniProt P51813)
PRKG1 (human) = PRKG1 (human) (UniProt Q13976)
Chain of PRKG1 (human) (Q13976 whole entry, looked up): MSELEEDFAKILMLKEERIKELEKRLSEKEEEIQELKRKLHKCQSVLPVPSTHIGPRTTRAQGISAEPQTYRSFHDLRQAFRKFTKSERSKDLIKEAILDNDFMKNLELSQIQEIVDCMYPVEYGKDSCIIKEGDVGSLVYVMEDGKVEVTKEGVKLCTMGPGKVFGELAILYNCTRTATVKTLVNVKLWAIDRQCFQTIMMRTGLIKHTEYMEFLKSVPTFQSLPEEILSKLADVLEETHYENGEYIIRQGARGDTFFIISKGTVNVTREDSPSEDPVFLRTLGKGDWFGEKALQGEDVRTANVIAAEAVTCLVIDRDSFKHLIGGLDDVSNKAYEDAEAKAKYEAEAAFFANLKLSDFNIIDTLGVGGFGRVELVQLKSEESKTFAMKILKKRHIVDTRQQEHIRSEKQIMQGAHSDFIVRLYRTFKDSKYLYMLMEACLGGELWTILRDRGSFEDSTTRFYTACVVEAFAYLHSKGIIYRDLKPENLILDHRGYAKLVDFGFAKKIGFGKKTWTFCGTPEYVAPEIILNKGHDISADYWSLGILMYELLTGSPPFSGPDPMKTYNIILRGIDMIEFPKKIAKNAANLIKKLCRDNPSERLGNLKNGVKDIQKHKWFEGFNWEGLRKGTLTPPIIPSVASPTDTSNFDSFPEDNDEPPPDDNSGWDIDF

DMPK (human) = DMPK (human) (UniProt Q09013)
Chain of DMPK (human) (Q09013 whole entry, looked up): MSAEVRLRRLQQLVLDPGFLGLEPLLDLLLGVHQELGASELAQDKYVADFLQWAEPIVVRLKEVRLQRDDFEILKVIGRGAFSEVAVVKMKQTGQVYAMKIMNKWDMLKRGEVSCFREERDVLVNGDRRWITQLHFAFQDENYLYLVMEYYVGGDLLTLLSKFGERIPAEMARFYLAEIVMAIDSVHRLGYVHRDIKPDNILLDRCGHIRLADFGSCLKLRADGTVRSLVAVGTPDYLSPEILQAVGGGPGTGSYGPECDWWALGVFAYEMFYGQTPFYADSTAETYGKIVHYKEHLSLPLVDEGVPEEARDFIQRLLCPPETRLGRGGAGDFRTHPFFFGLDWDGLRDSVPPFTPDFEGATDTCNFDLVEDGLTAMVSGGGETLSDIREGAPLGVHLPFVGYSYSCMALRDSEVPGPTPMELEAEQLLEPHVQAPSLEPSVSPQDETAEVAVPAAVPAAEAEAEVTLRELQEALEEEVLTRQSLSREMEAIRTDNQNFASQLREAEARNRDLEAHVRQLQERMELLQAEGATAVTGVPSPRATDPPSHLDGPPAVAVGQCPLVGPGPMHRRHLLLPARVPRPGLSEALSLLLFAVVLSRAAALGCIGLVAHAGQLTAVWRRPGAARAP

AKT2 (human) = AKT2 (human) (UniProt P31751)
RPS6KB1 (human) = RPS6KB1 (human) (UniProt P23443)
MAP4K2 (human) = MAP4K2 (human) (UniProt Q12851)
GRK7 (human) = GRK7 (human) (UniProt Q8WTQ7)
LRRK2 (human) = LRRK2 (human) (UniProt Q5S007)
MAP3K11 (human) = MAP3K11 (human) (UniProt Q16584)
DAPK1 (human) = DAPK1 (human) (UniProt P53355)
Chain of DAPK1 (human) (P53355 whole entry, looked up): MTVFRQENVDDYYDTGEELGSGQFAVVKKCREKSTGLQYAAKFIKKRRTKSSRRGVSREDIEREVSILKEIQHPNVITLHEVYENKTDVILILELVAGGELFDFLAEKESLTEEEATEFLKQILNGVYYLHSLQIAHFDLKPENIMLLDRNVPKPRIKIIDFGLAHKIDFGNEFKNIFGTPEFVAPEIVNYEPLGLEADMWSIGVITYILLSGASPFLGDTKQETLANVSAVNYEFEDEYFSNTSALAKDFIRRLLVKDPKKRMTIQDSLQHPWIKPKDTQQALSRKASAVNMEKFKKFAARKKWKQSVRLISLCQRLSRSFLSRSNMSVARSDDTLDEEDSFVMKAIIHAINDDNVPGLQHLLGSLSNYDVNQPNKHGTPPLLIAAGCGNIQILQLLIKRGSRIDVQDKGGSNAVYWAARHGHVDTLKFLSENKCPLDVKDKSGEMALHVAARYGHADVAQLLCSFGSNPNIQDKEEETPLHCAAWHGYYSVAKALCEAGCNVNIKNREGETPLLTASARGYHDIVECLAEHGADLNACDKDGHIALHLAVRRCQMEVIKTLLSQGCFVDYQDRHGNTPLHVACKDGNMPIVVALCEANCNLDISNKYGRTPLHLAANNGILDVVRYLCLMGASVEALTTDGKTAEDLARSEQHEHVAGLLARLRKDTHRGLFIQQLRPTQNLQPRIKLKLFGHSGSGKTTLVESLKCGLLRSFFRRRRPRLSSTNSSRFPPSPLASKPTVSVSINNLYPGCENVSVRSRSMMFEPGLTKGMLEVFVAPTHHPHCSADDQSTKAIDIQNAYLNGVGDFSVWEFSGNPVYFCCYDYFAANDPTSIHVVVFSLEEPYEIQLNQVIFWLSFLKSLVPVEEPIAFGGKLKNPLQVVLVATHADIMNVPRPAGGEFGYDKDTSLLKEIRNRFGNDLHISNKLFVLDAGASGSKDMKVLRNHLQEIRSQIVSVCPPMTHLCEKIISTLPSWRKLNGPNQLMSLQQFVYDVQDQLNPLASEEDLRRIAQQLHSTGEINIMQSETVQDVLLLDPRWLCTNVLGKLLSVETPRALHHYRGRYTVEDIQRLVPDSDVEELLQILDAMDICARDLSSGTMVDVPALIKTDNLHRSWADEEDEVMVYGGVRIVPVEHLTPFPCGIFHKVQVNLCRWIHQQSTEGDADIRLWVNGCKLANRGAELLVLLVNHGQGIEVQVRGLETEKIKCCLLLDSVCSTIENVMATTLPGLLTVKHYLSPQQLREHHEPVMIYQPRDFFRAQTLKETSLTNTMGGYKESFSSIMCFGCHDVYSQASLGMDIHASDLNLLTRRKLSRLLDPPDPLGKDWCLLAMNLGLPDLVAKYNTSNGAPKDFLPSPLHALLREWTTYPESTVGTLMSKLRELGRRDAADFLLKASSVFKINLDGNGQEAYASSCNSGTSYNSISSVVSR

CAMK2B (human) = CAMK2B (human) (UniProt Q13554)
PAK4 (human) = PAK4 (human) (UniProt O96013)
TNK2 (human) = TNK2 (human) (UniProt Q07912)
ZAP70 (human) = ZAP70 (human) (UniProt P43403)
LYN (human) = LYN (human) (UniProt P07948)
PIM2 (human) = PIM2 (human) (UniProt Q9P1W9)
IRAK1 (human) = IRAK1 (human) (UniProt P51617)
NEK1 (human) = NEK1 (human) (UniProt Q96PY6)
ROCK1 (human) = ROCK1 (human) (UniProt Q13464)
PRKG2 (human) = PRKG2 (human) (UniProt Q13237)
CDC42BPA (human) = CDC42BPA (human) (UniProt Q5VT25)
PAK7 (human) = PAK7 (human) (UniProt Q9P286)
OXSR1 (human) = OXSR1 (human) (UniProt O95747)
Chain of OXSR1 (human) (O95747 whole entry, looked up): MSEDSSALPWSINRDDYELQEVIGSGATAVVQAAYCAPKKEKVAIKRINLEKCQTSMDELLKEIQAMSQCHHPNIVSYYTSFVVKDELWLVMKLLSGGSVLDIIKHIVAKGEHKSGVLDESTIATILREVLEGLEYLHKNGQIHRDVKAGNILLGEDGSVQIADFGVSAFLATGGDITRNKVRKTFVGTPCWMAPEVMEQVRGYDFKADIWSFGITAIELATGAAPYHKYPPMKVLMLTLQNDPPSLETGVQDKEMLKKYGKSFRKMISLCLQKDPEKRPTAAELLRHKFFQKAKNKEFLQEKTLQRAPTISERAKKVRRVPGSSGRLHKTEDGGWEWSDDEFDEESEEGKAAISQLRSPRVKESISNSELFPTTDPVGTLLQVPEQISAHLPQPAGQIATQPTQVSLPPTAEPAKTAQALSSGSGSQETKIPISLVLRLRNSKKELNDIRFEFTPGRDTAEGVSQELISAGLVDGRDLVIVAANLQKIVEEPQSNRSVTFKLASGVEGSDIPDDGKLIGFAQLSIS

CDK3 CCNE1 (human) = CDK3 CCNE1 (human) (UniProt Q00526+P24864)

COc1cccc(-c2cc(=O)c3ccccc3o2)c1N
residual activity (PRKD2 (human)): 103%
residual activity (RIPK2 (human)): 87.5%
residual activity (EPHA4 (human)): 98%
residual activity (NEK7 (human)): 94.7%
residual activity (STK25 (human)): 106%
residual activity (CSK (human)): 83.7%
residual activity (TSSK2 (human)): 79.7%
residual activity (LTK (human)): 75.4%
residual activity (GSK3A (human)): 97%
residual activity (ALK (human)): 84.1%
residual activity (CLK2 (human)): 103%
residual activity (STK10 (human)): 90.4%
residual activity (NTRK1 (human)): 99.9%
residual activity (HCK (human)): 91.6%
residual activity (SRC (human)): 92.6%
residual activity (EPHB2 (human)): 88%
residual activity (STK17A (human)): 96.9%
residual activity (ROCK2 (human)): 91.5%
residual activity (BMX (human)): 103%
residual activity (PRKG1 (human)): 108% and 111%
residual activity (DMPK (human)): 97.1%
residual activity (AKT2 (human)): 97.4%
residual activity (RPS6KB1 (human)): 98%
residual activity (MAP4K2 (human)): 81.7%
residual activity (GRK7 (human)): 103%
residual activity (LRRK2 (human)): 101%
residual activity (MAP3K11 (human)): 95.9%
residual activity (DAPK1 (human)): 90.9%
residual activity (CAMK2B (human)): 103%
residual activity (PAK4 (human)): 88.1%
residual activity (TNK2 (human)): 79.9%
residual activity (ZAP70 (human)): 107%
residual activity (LYN (human)): 94.6% and 98.7%
residual activity (PIM2 (human)): 99.3%
residual activity (IRAK1 (human)): 98.8%
residual activity (NEK1 (human)): 81.2%
residual activity (ROCK1 (human)): 95.6%
residual activity (PRKG2 (human)): 101%
residual activity (CDC42BPA (human)): 98.5%
residual activity (PAK7 (human)): 99.7%
residual activity (OXSR1 (human)): 91.2%
residual activity (CDK3 CCNE1 (human)): 109%

c1ccc(-c2cnc(Nc3ccc(OCCN4CCCC4)cc3)s2)cc1
residual activity (PRKD2 (human)): 82.2%
residual activity (RIPK2 (human)): 50.4%
residual activity (EPHA4 (human)): 101%
residual activity (NEK7 (human)): 100%
residual activity (STK25 (human)): 95.5%
residual activity (CSK (human)): 89.9%
residual activity (TSSK2 (human)): 89%
residual activity (LTK (human)): 93.8%
residual activity (GSK3A (human)): 99.2%
residual activity (ALK (human)): 97%
residual activity (CLK2 (human)): 102%
residual activity (STK10 (human)): 76.9%
residual activity (NTRK1 (human)): 54.1%
residual activity (HCK (human)): 98.6%
residual activity (SRC (human)): 75.3%
residual activity (EPHB2 (human)): 75.6%
residual activity (STK17A (human)): 66.2%
residual activity (ROCK2 (human)): 91.7%
residual activity (BMX (human)): 84.5%
residual activity (PRKG1 (human)): 96.7% and 100%
residual activity (DMPK (human)): 110%
residual activity (AKT2 (human)): 92.4%
residual activity (RPS6KB1 (human)): 92.3%
residual activity (MAP4K2 (human)): 113%
residual activity (GRK7 (human)): 90.2%
residual activity (LRRK2 (human)): 95.8%
residual activity (MAP3K11 (human)): 84.4%
residual activity (DAPK1 (human)): 95.1%
residual activity (CAMK2B (human)): 84.2%
residual activity (PAK4 (human)): 106%
residual activity (TNK2 (human)): 66.6%
residual activity (ZAP70 (human)): 105%
residual activity (LYN (human)): 65.1% and 87.5%
residual activity (PIM2 (human)): 108%
residual activity (IRAK1 (human)): 109%
residual activity (NEK1 (human)): 94.2%
residual activity (ROCK1 (human)): 102%
residual activity (PRKG2 (human)): 106%
residual activity (CDC42BPA (human)): 91%
residual activity (PAK7 (human)): 87.2%
residual activity (OXSR1 (human)): 85.3%
residual activity (CDK3 CCNE1 (human)): 97.6%

O=C1NC(=O)c2cc(Nc3ccc(F)cc3)c(Nc3ccc(F)cc3)cc21
residual activity (PRKD2 (human)): 86.8%
residual activity (RIPK2 (human)): 95%
residual activity (EPHA4 (human)): 94%
residual activity (NEK7 (human)): 103%
residual activity (STK25 (human)): 101%
residual activity (CSK (human)): 92%
residual activity (TSSK2 (human)): 97.2%
residual activity (LTK (human)): 99.7%
residual activity (GSK3A (human)): 88.2%
residual activity (ALK (human)): 92.6%
residual activity (CLK2 (human)): 88.1%
residual activity (STK10 (human)): 79.2%
residual activity (NTRK1 (human)): 93.6%
residual activity (HCK (human)): 88.3%
residual activity (SRC (human)): 101%
residual activity (EPHB2 (human)): 89.3%
residual activity (STK17A (human)): 104%
residual activity (ROCK2 (human)): 92.8%
residual activity (BMX (human)): 95.3%
residual activity (PRKG1 (human)): 103% and 94.3%
residual activity (DMPK (human)): 108%
residual activity (AKT2 (human)): 95.1%
residual activity (RPS6KB1 (human)): 95.5%
residual activity (MAP4K2 (human)): 98.2%
residual activity (GRK7 (human)): 106%
residual activity (LRRK2 (human)): 99.8%
residual activity (MAP3K11 (human)): 98.4%
residual activity (DAPK1 (human)): 81.3%
residual activity (CAMK2B (human)): 98.7%
residual activity (PAK4 (human)): 95.1%
residual activity (TNK2 (human)): 93.2%
residual activity (ZAP70 (human)): 78.8%
residual activity (LYN (human)): 97.8% and 98.7%
residual activity (PIM2 (human)): 98.6%
residual activity (IRAK1 (human)): 88.5%
residual activity (NEK1 (human)): 88%
residual activity (ROCK1 (human)): 96.7%
residual activity (PRKG2 (human)): 83.3%
residual activity (CDC42BPA (human)): 92.3%
residual activity (PAK7 (human)): 96.4%
residual activity (OXSR1 (human)): 101%
residual activity (CDK3 CCNE1 (human)): 98.9%

O=C(O)c1ccc2c3c1cccc3c(=O)n1c3ccccc3nc21
residual activity (PRKD2 (human)): 86.8%
residual activity (RIPK2 (human)): 78.4%
residual activity (EPHA4 (human)): 103%
residual activity (NEK7 (human)): 105%
residual activity (STK25 (human)): 104%
residual activity (CSK (human)): 101%
residual activity (TSSK2 (human)): 106%
residual activity (LTK (human)): 72.7%
residual activity (GSK3A (human)): 87.3%
residual activity (ALK (human)): 92.7%
residual activity (CLK2 (human)): 91%
residual activity (STK10 (human)): 88.6%
residual activity (NTRK1 (human)): 105%
residual activity (HCK (human)): 96.7%
residual activity (SRC (human)): 96.3%
residual activity (EPHB2 (human)): 104%
residual activity (STK17A (human)): 73.4%
residual activity (ROCK2 (human)): 99%
residual activity (BMX (human)): 96.4%
residual activity (PRKG1 (human)): 94% and 95.1%
residual activity (DMPK (human)): 98.9%
residual activity (AKT2 (human)): 101%
residual activity (RPS6KB1 (human)): 95.9%
residual activity (MAP4K2 (human)): 38%
residual activity (GRK7 (human)): 102%
residual activity (LRRK2 (human)): 70.1%
residual activity (MAP3K11 (human)): 23.7%
residual activity (DAPK1 (human)): 40.9%
residual activity (CAMK2B (human)): 92.6%
residual activity (PAK4 (human)): 114%
residual activity (TNK2 (human)): 101%
residual activity (ZAP70 (human)): 119%
residual activity (LYN (human)): 101% and 99.4%
residual activity (PIM2 (human)): 41.7%
residual activity (IRAK1 (human)): 61.1%
residual activity (NEK1 (human)): 87.8%
residual activity (ROCK1 (human)): 104%
residual activity (PRKG2 (human)): 94.8%
residual activity (CDC42BPA (human)): 96.1%
residual activity (PAK7 (human)): 98.7%
residual activity (OXSR1 (human)): 104%
residual activity (CDK3 CCNE1 (human)): 97.9%
